{"source": "patent US20250345458A1", "about": "“COMPLEXING AGENT SALT FORMULATIONS OF PHARMACEUTICAL COMPOUNDS AT LOW STOICHIOMETRIC RATIOS” (Bexson Biomedical, Inc., priority 2022, published 2025)", "key": {"[1]": {"settings": "cited from earlier work"}, "[2]": {"settings": "in water, cited from earlier work; for Reported Freebase Solubility: vendor or literature value"}, "[3]": {"experiment": "Dissolution of API freebase in aqueous CapAcid / Captisol solutions at defined API:CapAcid ratios, visual inspection and NaOH titration", "settings": "for Successful in a 70 mg/mL API-CapAcid Formulation (Y/N) / concentration (FB equivalents) at which the freebase dissolved: water; for Successful in a 70 mg/mL API-CapAcid Formulation (Y/N): 70 mg/mL FB"}, "[4]": {"settings": "literature value; cited from earlier work"}, "[5]": {"settings": "cited from earlier work", "remark": "listed apart in the source"}, "[6]": {"experiment": "Visual dissolution / precipitation of API free base-CapAcid formulations at stated API:CapAcid ratios", "assay_type": "physicochemical"}, "[7]": {"experiment": "Concentration test of rimantadine HCl in water", "assay_type": "physicochemical", "description": "A solution of 50 mg/mL rimantadine HCl, FB equivalents, (120.3 mg, 0.56 mmol), was prepared by adding 1.7 mL of HPLC grade water and an addition of a solution of benzethonium chloride (20 μL, […], 0.01% final concentration). […] It was diluted until it did dissolve, which took a total of 4.6 mL of HPLC (including the initial 1.7 mL). The solution was left to stir overnight. The solution was diluted to 5 mL, making the final concentration 20 mg/mL. The pH was 6.83 and the solution was filtered through a 0.20 micron syringe filter. The osmolality was 205 mOsm/kg.\nA separate test was performed on another 50 mg/mL solution of rimantadine HCl, FB equivalents (60.2 mg, 0.28 mmol), dissolved in 800 μL of HPLC grade water and an addition of a solution of benzethonium chloride (10 μL, 1 mg/mL, 0.01% final concentration)."}, "[8]": {"experiment": "Osmolality of API formulations (micro osmometer, triplicate)", "assay_type": "physicochemical"}, "[9]": {"experiment": "pH of API formulations (pH meter)", "assay_type": "physicochemical", "settings": "for final pH: after 2M NaOH"}, "[10]": {"experiment": "Osmolality of API formulations (micro osmometer, triplicate)", "assay_type": "physicochemical", "description": "Osmolality readings were obtained on an Advanced Instruments Advanced™ Micro Osmometer Model 3300 (Advanced Instruments, Inc. Norwood, MA, USA). Saline solutions (0.9% and 3%) were run as positive controls. Each sample was calculated as the mean from back-to-back triplicate measurements. When replicate batches were measured, data was reported as mean±SEM.\nThe procedure was performed on a 2 mL scale. […] Benzethonium chloride (20 μL of a 1% solution, 0.01% final concentration) was added via micropipette. The pH was adjusted to ˜7.00 with 2M sodium hydroxide, or either 1M or 2M HCl in some cases, and then the mixture was transferred to a 2 mL volumetric flask to be diluted with HPLC grade water. […]\nMethod 1: In a 5 mL borosilicate glass test tube which contained a Teflon-coated magnetic stir bar, Captisol®-Na+ ([…], H+ equivalents, moisture corrected) was dissolved in HPLC grade water (1.6-1.7 mL), API salt (HCl in most cases) (70 mg/mL FB equivalents) was added and the mixture was stirred until a homogenous transparent solution formed. Benzethonium chloride (20 μL of a 1% solution, giving a 0.01% final concentration) was added via micropipette. The pH was adjusted to ˜7.00 with 1M or 2M sodium hydroxide, or either 1M or 2M HCl in some cases, and then the mixture was transferred to a 2 mL volumetric flask to be diluted with HPLC grade water. […]\nBenzethonium chloride (20 μL of a 1% solution, giving a 0.01% final concentration) was added via micropipette. The pH was adjusted to ˜7.00 with 1M or 2M sodium hydroxide, or either 1M or 2M HCl in some cases, and then the mixture transferred to a 2 mL volumetric flask to be diluted with HPLC grade water. […]\nThe solution was transferred to a 2 mL volumetric flask and diluted to the target volume with HPLC grade water. […]", "remark": "listed apart in the source"}, "[11]": {"experiment": "Reported solubility in water of APIs (freebase and salt)", "assay_type": "physicochemical", "description": "Table 5 lists the solubility and pKa values of the various APIs described above.\nA challenge was that reliable solubility data for certain APIs was difficult to locate (especially for the freebase forms). As such in a number of instances only predicted values could be located and in the case of rimantidine HCl this value was inconsistent with our empirical results. Likewise, the drugbank predicted value for tigecycline was 0.01455 mg/mL, whereas a literature value was 0.45 mg/mL. The solubility of a range of poor to moderately to highly soluble APIs as freebases as well as common commercial API salt forms will be determined."}, "[12]": {"experiment": "Stability of tigecycline FB CapAcid solution on standing", "assay_type": "physicochemical", "settings": "70 mg/mL FB with 1.1 molar equivalents of CapAcid, FIG. 1A", "protocol": "The formulation of Tigecycline FB CapAcid was prepared as follows. The preparation procedure for Tigecycline FB CapAcid Formulation was modified from the general procedure. A solution of 70 mg/mL Tigecycline FB (69.9 mg, 0.12 mmol) and 1.1 equivalents of CapAcid, H^+ equivalents, (43.7 mg moisture corrected, 40.8 mg active, 0.02 mmol, 0.13 mmol H^+) was prepared by dissolving CapAcid in 700 μL of HPLC grade water, then adding the freebase and stirring until a homogenous solution formed. Benzethonium chloride (10 μL, 1 mg/mL, 0.01% final concentration) was added to the solution. NaOH (2M) was added until the pH was 7.00±0.01. The solution was diluted to 1 mL and the final pH was determined to be 6.99. […] The solution was filtered through a 0.45 micron syringe filter."}, "[13]": {"experiment": "API-CapAcid salts prepared in ethanol, then 70 mg of solid added to 1 mL water (visual)", "assay_type": "physicochemical", "protocol": "The resulting solid API-CapAcid salts were then obtained as solids by evaporation of the ethanol, followed by lyophilization.\nIn a scintillation vial, a solution of API FB (100 mg) and CapAcid (1 molar equivalent, moisture corrected) was prepared by dissolving Cap Acid in 200 proof ethanol (5 mL) and then adding the freebase API. […] Whether or not the freebase dissolved after the second addition of ethanol, the initial pH, prior to titration, was recorded. The vial was then wrapped in foil and left uncovered in the hood to allow the ethanol to evaporate. After the ethanol fully evaporated, a small amount of HPLC grade water (3-5 mL) was added to each to see if the product would dissolve or become a suspension in the water. The solution was then lyophilized to remove the water. The product was ground with a stir rod and 70±0.1 mg was added to 1 mL of water to see if it would dissolve."}, "[14]": {"settings": "concentration test solution diluted to 20 mg/mL, with benzethonium chloride"}, "[15]": {"settings": "API FB CapAcid formulation, 70 mg/mL API FB, 1.1 equivalents CapAcid (H^+ equivalents), after titration"}, "[16]": {"settings": "CapAcid-API Freebase Formulation (70 mg/mL API FB, 1.1 molar equivalent CapAcid), after pH titration with NaOH or HCl"}, "[17]": {"settings": "70 mg/mL API FB, 1.1 equivalents CapAcid, before NaOH/HCl"}}, "note": "“And” between values parts separate entries of the source, which are not always exact repeats. Equal entries are not always repeated. “Also recorded” adds a separate entry of the source. Structures can show the parent of a compound that is named as a salt. Marks after values point to notes of the source that are not given here."}
{"smiles": "CC(=O)[C@H]1CC[C@H]2[C@@H]3CC[C@H]4C[C@H](O)CC[C@]4(C)[C@H]3CC[C@]12C", "note": "[Brexanolone]", "values": [{"measurement": "oral bioavailability", "setting": "[1]", "value": "poor"}]}
{"smiles": "CCOC(=O)c1ncn2c1CN(C)C(=O)c1cc(F)ccc1-2", "note": "[Flumazenil]", "values": [{"measurement": "Reported Freebase Solubility", "setting": "[2]", "value": 1.2, "unit": "mg/mL"}, {"measurement": "Successful in a 70 mg/mL API-CapAcid Formulation (Y/N)", "setting": "[3]", "value": "unsuccessful"}, {"measurement": "pKa", "setting": "[4]", "value": "2.87^21"}]}
{"smiles": "CO[C@H]1C[C@@H]2CC[C@@H](C)[C@@](O)(O2)C(=O)C(=O)N2CCCC[C@H]2C(=O)O[C@H]([C@H](C)C[C@@H]2CC[C@@H](O)[C@H](OC)C2)CC(=O)[C@H](C)/C=C(\\C)[C@@H](O)[C@@H](OC)C(=O)[C@H](C)C[C@H](C)/C=C/C=C/C=C/1C", "note": "[Rapamycin, rapamycin]", "values": [{"measurement": "reported strongest acidic pKa", "setting": "[5]", "value": 9.96}, {"measurement": "strongest basic pKa", "setting": "[5]", "value": "−3"}]}
{"smiles": "CC(N)C12CC3CC(CC(C3)C1)C2", "note": "(centres unmarked) [Rimantadine HCl]", "values": [{"measurement": "dissolution state of the formulation", "setting": "[6]; HCl", "value": "fully dissolved; also recorded: incompletely dissolved"}, {"measurement": "dissolution at 50 mg/mL, FB equivalents", "setting": "[7]; HPLC grade water with 0.01% benzethonium chloride", "value": "did not dissolve"}, {"measurement": "solubility", "setting": "[7]; pH 6.83, aqueous with cosolvent or surfactant or cyclodextrin, thermodynamic from solid, HPLC grade water, stirred overnight, read-out: concentration at which the salt was soluble in water (FB equivalents)", "value": 20, "unit": "mg/mL"}, {"measurement": "Osmolality", "setting": "[8]; [14]", "value": 205, "unit": "mOsm/kg"}, {"measurement": "pH", "setting": "[9]; [14]", "value": 6.83}]}
{"smiles": "CC(N)C12CC3CC(CC(C3)C1)C2", "note": "(centres unmarked) [Rimantadine]", "values": [{"measurement": "osmolality and pH in words", "setting": "[10]; 70 mg/mL API-Cap formulation", "value": "isosmotic and PH neutral"}, {"measurement": "Osmolality", "setting": "[10]; [15]", "value": 301.7, "unit": "mOsmol/kg"}, {"measurement": "Osmolality", "setting": "[10]; [16]", "value": 301.7, "unit": "mOsm/kg"}, {"measurement": "Osmolality", "setting": "[10]; Captisol®-Na^+ formulation of API salt, ***20 mg/mL FB equivalents, 1.1 molar equivalent Captisol®-Na^+", "value": "297.3*** mOsm/kg"}, {"measurement": "Successful in a 70 mg/mL API-CapAcid Formulation (Y/N)", "setting": "[3]; listed as Rimantidine", "value": "prepared at 70 mg/mL without issue"}, {"measurement": "solubility", "setting": "[11]", "value": "~20", "unit": "mg/mL"}, {"measurement": "Osmolality", "setting": "[8]; 20 mg/mL API HCl (FB equivalent), 1.1 equivalents Captisol®-Na^+", "value": 297.3, "unit": "mOsmol/kg"}, {"measurement": "Osmolality", "setting": "[8]; API Salt in water, ***20 mg/mL FB equivalents", "value": 195.3, "unit": "mOsm/kg"}, {"measurement": "pH of the solution prior to titration", "setting": "[9]; 20 mg/mL API HCl (FB equivalent), 1.1 equivalents Captisol®-Na^+, before NaOH", "value": 4.65}, {"measurement": "pH of the solution prior to titration", "setting": "[9]; [17]", "value": 1.93}, {"measurement": "pH", "setting": "[9]; CapAcid-API Freebase Formulation (70 mg/mL API FB, 1.1 molar equivalent CapAcid), final pH after titration and dilution", "value": 6.98}]}
{"smiles": "CN(C)c1cc(NC(=O)CNC(C)(C)C)c(O)c2c1C[C@H]1C[C@H]3[C@H](N(C)C)C(O)=C(C(N)=O)C(=O)[C@@]3(O)C(O)=C1C2=O", "note": "[Tigecycline, tigecycline]", "values": [{"measurement": "Osmolality", "setting": "[10]; 70 mg/mL API FB and 1 equivalent of 6M HCl in water", "value": 138.3, "unit": "mOsmol/kg"}, {"measurement": "Osmolality", "setting": "[10]; 70 mg/mL API FB, 1 equivalent of 6M HCl, 1.1 equivalents Captisol®-Na^+", "value": 330.3, "unit": "mOsmol/kg"}, {"measurement": "Osmolality", "setting": "[10]; 70 mg/mL FB, 1.1 equivalents CapAcid, 1 mL scale, recorded the next day after the solution had turned yellow-brown", "value": 158.7, "unit": "mOsmol/kg"}, {"measurement": "Osmolality", "setting": "[10]; *70 mg/mL API FB + molar equivalent of 6M HCl in water", "value": "138.3* mOsm/kg"}, {"measurement": "Osmolality", "setting": "[10]; [15]", "value": "99.3 mOsmol/kg and 92.7 mOsmol/kg"}, {"measurement": "Osmolality", "setting": "[10]; [16]", "value": "1: 99.3 mOsm/kg and 2: 92.7 mOsm/kg"}, {"measurement": "Osmolality", "setting": "[10]; Captisol®-Na^+ formulation, *70 mg/mL API FB + 6M HCl, 1.1 molar equivalent Captisol®-Na^+", "value": "330.3* mOsm/kg"}, {"measurement": "Reported Freebase Solubility", "setting": "[2]", "value": 0.45, "unit": "mg/mL"}, {"measurement": "stability of the formulation", "setting": "[12]", "value": "degradation after 24 hours"}, {"measurement": "pH of the solution prior to titration", "setting": "[9]; 70 mg/mL API FB, 1 equivalent 6M HCl, 1.1 equivalents Captisol®-Na^+, before NaOH/HCl", "value": 5.61}, {"measurement": "pH of the solution prior to titration", "setting": "[9]; [17]", "value": "5.19 and 5.37"}]}
{"smiles": "CCCN(CCc1cccs1)[C@H]1CCc2c(O)cccc2C1", "note": "[rotigotine]", "values": [{"measurement": "solubility compared to higher API:captisol ratio", "setting": "[6]; 1:1 ratio to captisol compared to 2:1 ratio", "value": "superior solubility"}, {"measurement": "appearance at higher API:captisol ratio", "setting": "[6]; 2:1 ratio to captisol", "value": "precipitation"}, {"measurement": "pH of the ethanol solution prior to titration", "setting": "[13]; API FB 100 mg + CapAcid 1 molar equivalent (H^+) in 10 mL 200 proof ethanol", "value": 5.63}, {"measurement": "dissolution of 70 mg of the ethanol-prepared API-CapAcid solid in 1 mL water", "setting": "[13]; visual, vortexed", "value": "did not dissolve in water"}, {"measurement": "Reported Salt Solubility", "setting": "[2]", "value": 3.51, "unit": "mg/mL^17"}, {"measurement": "concentration (FB equivalents) at which the freebase dissolved", "setting": "[3]; 1:1 ratio of API to CapAcid (relative to the cyclodextrin)", "value": 10000, "unit": "µg/mL"}, {"measurement": "concentration (FB equivalents) at which the freebase dissolved", "setting": "[3]; 2:1 ratio of API to CapAcid (relative to the cyclodextrin)", "value": 3000, "unit": "µg/mL"}, {"measurement": "dissolution by visual inspection", "setting": "[3]; 2:1 ratio of API to CapAcid, 100 mg FB in 30 mL water (3 mg/mL)", "value": "most of the FB dissolved"}, {"measurement": "pKa (amine)", "setting": "[4]", "value": 10.97}, {"measurement": "pKa (phenol)", "setting": "[4]", "value": 10.03}, {"measurement": "pH of the solution before titration", "setting": "[9]; 1:1 ratio of API to CapAcid", "value": 0.93}, {"measurement": "final pH", "setting": "[9]; 1:1 ratio of API to CapAcid", "value": 5.49}, {"measurement": "pH of the solution before titration", "setting": "[9]; 2:1 ratio of API to CapAcid", "value": 1.66}, {"measurement": "final pH", "setting": "[9]; 2:1 ratio of API to CapAcid", "value": 5.51}]}
